In ChEMBL document CHEMBL1909046, “DrugMatrix in vitro pharmacology data”:

How the values were obtained:
[1] = molecular target: Aldo-keto reductase family 1 member B1 (Rattus norvegicus, UniProt P07943); assay: biochemical; type: tissue-based, Lens of camera-type eye;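 also: inhibition of aldose reductase enzyme activity, measured with DL-glyceraldehyde as the substrate; in other assays of this panel Not Active means under 50% inhibition at 10 µM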
[2] = molecular target: T1, Muscarinic acetylcholine receptor M4 (Homo sapiens, UniProt P08173); type: cell membranes, CHO-K1, Membrane; conditions: for Ki: read-out: Ki; as to all read-outs here: in other assays of this panel Not Active means under 50% inhibition at 10 µM
T1 sequence (P08173 whole entry): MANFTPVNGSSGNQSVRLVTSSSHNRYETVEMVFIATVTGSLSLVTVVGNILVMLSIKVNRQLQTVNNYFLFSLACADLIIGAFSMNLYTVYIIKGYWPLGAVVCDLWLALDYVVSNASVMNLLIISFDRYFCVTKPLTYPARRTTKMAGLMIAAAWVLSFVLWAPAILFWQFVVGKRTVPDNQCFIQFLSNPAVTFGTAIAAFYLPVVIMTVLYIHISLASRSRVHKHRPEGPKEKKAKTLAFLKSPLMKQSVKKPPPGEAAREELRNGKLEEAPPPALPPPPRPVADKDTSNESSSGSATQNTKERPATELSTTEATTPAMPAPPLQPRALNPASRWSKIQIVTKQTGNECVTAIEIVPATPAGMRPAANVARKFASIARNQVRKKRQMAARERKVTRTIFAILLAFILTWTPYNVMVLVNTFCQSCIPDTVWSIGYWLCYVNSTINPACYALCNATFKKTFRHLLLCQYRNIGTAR

[3] = DRUGMATRIX: Sodium/nucleoside co-transporter radioligand binding (ligand: nitrobenzylthioinosine); type: cell membranes, Cavia porcellus, Dunkin-Hartley, Cerebral cortex, Membrane; conditions: Not Active = under 50% inhibition at 10 µM
[4] = molecular target: T2, C-X-C chemokine receptor type 1 (Homo sapiens, UniProt P25024); also: in other assays of this panel Not Active means under 50% inhibition at 10 µM
T2 sequence (P25024 whole entry): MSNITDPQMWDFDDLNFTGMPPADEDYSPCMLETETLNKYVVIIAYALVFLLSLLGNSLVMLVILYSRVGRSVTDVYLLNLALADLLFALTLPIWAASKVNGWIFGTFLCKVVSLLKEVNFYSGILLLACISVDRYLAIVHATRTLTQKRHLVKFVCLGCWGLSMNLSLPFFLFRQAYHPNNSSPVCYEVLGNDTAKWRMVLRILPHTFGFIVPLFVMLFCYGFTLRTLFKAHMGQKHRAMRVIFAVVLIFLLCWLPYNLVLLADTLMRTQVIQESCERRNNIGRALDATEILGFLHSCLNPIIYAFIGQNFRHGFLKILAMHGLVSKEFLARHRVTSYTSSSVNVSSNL

[5] = molecular target: T3, Cysteinyl leukotriene receptor 1 (Homo sapiens, UniProt Q9Y271); type: cell membranes, Membrane; conditions: cho-k1; also: in other assays of this panel Not Active means under 50% inhibition at 10 µM
T3 sequence (Q9Y271 whole entry): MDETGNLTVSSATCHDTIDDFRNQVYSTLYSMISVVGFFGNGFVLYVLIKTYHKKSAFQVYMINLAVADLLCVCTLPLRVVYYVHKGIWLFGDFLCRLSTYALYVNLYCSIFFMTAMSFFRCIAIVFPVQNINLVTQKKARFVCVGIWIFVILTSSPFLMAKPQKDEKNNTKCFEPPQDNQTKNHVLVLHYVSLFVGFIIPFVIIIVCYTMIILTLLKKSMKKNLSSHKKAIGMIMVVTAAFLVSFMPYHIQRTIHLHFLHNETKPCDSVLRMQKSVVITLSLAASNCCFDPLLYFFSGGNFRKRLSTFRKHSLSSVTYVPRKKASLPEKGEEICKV

Estrogen receptor = molecular target: T4, Estrogen receptor (Homo sapiens, UniProt P03372); conditions: sf9; also: in other assays of this panel Not Active means under 50% inhibition at 10 µM
T4 sequence (P03372 whole entry): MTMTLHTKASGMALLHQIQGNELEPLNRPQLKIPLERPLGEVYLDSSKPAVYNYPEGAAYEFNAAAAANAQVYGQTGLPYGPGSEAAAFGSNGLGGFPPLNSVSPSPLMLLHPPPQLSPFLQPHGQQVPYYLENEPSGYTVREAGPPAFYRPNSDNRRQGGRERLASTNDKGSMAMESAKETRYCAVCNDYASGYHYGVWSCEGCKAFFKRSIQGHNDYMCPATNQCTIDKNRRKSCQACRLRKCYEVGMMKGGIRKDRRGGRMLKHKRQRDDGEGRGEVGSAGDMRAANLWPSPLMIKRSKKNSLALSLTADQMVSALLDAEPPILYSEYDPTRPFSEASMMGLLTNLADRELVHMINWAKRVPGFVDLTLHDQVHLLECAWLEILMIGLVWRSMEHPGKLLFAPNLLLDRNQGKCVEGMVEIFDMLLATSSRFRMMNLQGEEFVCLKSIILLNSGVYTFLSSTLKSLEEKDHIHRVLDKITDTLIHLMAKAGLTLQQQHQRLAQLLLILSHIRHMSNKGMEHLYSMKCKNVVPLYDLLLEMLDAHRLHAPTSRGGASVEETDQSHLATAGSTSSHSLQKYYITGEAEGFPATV

[6] = molecular target: T5, Alpha-1B adrenergic receptor (Rattus norvegicus, UniProt P15823); assay: DRUGMATRIX: Alpha-1B adrenergic receptor radioligand binding (ligand: prazosin); type: cell membranes, Wistar, Liver, Membrane; conditions: Not Active = under 50% inhibition at 10 µM; for Ki: read-out: Ki
T5 sequence (P15823 whole entry): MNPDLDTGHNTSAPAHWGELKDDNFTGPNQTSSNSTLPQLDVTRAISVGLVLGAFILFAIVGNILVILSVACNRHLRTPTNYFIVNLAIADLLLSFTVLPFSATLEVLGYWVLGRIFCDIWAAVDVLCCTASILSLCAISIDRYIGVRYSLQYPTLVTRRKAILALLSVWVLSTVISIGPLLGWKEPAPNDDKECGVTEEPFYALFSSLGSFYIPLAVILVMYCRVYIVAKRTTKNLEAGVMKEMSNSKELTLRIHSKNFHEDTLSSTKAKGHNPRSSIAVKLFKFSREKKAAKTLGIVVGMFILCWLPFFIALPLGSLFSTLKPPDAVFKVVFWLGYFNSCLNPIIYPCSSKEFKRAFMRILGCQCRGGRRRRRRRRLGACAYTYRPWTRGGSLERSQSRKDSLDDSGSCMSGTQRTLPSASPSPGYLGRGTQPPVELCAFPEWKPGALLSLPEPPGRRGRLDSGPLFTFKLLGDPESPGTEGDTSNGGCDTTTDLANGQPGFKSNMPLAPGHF

Row | SMILES | IC50 [1] | IC50 ([2]; cho-k1) | IC50 [3] | Ki [3] | IC50 [4] | IC50 [5] | IC50 (Estrogen receptor) | IC50 [6] | IC50 ([2]; read-out: IC50) [nM] | Ki [2] [nM] | IC50 ([6]; read-out: IC50) [nM] | Ki [6] [nM] | Ki [4]
1 | CCCNC(=O)NS(=O)(=O)c1ccc(Cl)cc1 [CHLORPROPAMIDE] | Not Active | Not Active | Not Active | Not Active | Not Active | Not Active | Not Active | Not Active |  |  |  |  | 
2 | O=C(O)CC(O)(CC(=O)O)C(=O)O [CITRIC ACID] | Not Active | Not Active | Not Active | Not Active | Not Active | Not Active | Not Active | Not Active |  |  |  |  | 
3 | CC(C)NCC(O)c1ccccc1Cl (configuration not stated) [CLORPRENALINE] | Not Active | Not Active | Not Active | Not Active | Not Active | Not Active | Not Active | Not Active |  |  |  |  | 
4 | CN1CCN(C(c2ccccc2)c2ccccc2)CC1 [CYCLIZINE] | Not Active |  | Not Active | Not Active | Not Active | Not Active | Not Active |  | 852 | 119 | 2490 | 1380 | 
5 | CN1C[C@@H]2C[C@H]1CN2c1cc2c(cc1F)c(=O)c(C(=O)O)cn2C1CC1 [DANOFLOXACIN] | Not Active | Not Active | Not Active | Not Active | Not Active | Not Active | Not Active | Not Active |  |  |  |  | 
6 | O=C(O)c1cc(-c2ccc(F)cc2F)ccc1O [DIFLUNISAL] | Not Active | Not Active | Not Active | Not Active | Not Active | Not Active | Not Active | Not Active |  |  |  |  | 
7 | CC1=NN(c2ccccc2)C(=O)C1 [EDARAVONE] | Not Active | Not Active | Not Active | Not Active | Not Active | Not Active | Not Active | Not Active |  |  |  |  | 
8 | CC(C)C[C@H]1C(=O)N2CCC[C@H]2[C@]2(O)O[C@](NC(=O)[C@@H]3C=C4c5cccc6[nH]cc(c56)C[C@H]4N(C)C3)(C(C)C)C(=O)N12 [ERGOCRYPTINE] | Not Active | Not Active | Not Active | Not Active | Not Active | Not Active | Not Active |  |  |  | 14 | 7.94 | 
9 | CC(C)(C(=O)O)c1ccc(C(O)CCCN2CCC(C(O)(c3ccccc3)c3ccccc3)CC2)cc1 (configuration not stated) [FEXOFENADINE] | Not Active | Not Active | Not Active | Not Active | Not Active | Not Active | Not Active | Not Active |  |  |  |  | 
10 | CN1CCN(c2c(F)cc3c(=O)c(C(=O)O)cn(CCF)c3c2F)CC1 [FLEROXACIN] | Not Active | Not Active | Not Active | Not Active | Not Active | Not Active | Not Active | Not Active |  |  |  |  | 
11 | O=c1[nH]c(=O)n([C@H]2C[C@H](O)[C@@H](CO)O2)cc1F [FLOXURIDINE] | Not Active | Not Active | Not Active | Not Active | Not Active | Not Active | Not Active | Not Active |  |  |  |  | 
12 | COC(=O)Nc1nc2cc(C(=O)c3ccc(F)cc3)ccc2[nH]1 [FLUBENDAZOLE] | Not Active | Not Active | Not Active | Not Active | Not Active | Not Active | Not Active | Not Active |  |  |  |  | 
13 | CC(=O)OCC(=O)[C@@]1(O)CC[C@H]2[C@@H]3CCC4=CC(=O)CC[C@]4(C)[C@@]3(F)[C@@H](O)C[C@@]21C [FLUDROCORTISONE ACETATE] | Not Active | Not Active | Not Active | Not Active | Not Active | Not Active | Not Active | Not Active |  |  |  |  | 
14 | CCOC(=O)c1ncn2c1CN(C)C(=O)c1cc(F)ccc1-2 [FLUMAZENIL] | Not Active | Not Active | Not Active | Not Active | Not Active | Not Active | Not Active | Not Active |  |  |  |  | 
15 | CC(=O)OCC(=O)[C@@]12OC(C)(C)O[C@@H]1C[C@H]1[C@@H]3C[C@H](F)C4=CC(=O)C=C[C@]4(C)[C@@]3(F)[C@@H](O)C[C@@]12C [FLUOCINONIDE] | Not Active | Not Active | Not Active | Not Active | Not Active | Not Active | Not Active | Not Active |  |  |  |  | 
16 | Cc1ccc(C)c(OCCCC(C)(C)C(=O)O)c1 [GEMFIBROZIL] | Not Active | Not Active | Not Active | Not Active | Not Active | Not Active | Not Active | Not Active |  |  |  |  | 
17 | CCC1=C(C)CN(C(=O)NCCc2ccc(S(=O)(=O)NC(=O)N[C@H]3CC[C@H](C)CC3)cc2)C1=O [GLIMEPIRIDE] | Not Active | Not Active | Not Active | Not Active | Not Active | Not Active | Not Active | Not Active |  |  |  |  | 
18 | Nc1cc(-c2ccncc2)c[nH]c1=O [INAMRINONE] | Not Active | Not Active | Not Active | Not Active | Not Active | Not Active | Not Active | Not Active |  |  |  |  | 
19 | CCCCC1=NC2(CCCC2)C(=O)N1Cc1ccc(-c2ccccc2-c2nnn[nH]2)cc1 [IRBESARTAN] | Not Active | Not Active | Not Active | Not Active | Not Active | Not Active | Not Active | Not Active |  |  |  |  | 
20 | CN1CCC(=C2c3ccccc3CC(=O)c3sccc32)CC1 [KETOTIFEN] | Not Active |  | Not Active | Not Active |  | Not Active | Not Active | Not Active | 1010 | 141 |  |  | Not Active
21 | N[C@@H](Cn1ccc(=O)c(O)c1)C(=O)O [L-MIMOSINE] | Not Active | Not Active | Not Active | Not Active | Not Active | Not Active | Not Active | Not Active |  |  |  |  | 
